Data set [1] deals with Myocardial nitric oxide synthase (NOS). Put plainly: Myocardial nitric oxide synthase activity in hearts of BH4-treated mice. The note with it: hearts of 12.5-month-old WT mice treated with BH4 or vehicle, FIG. 4i. Type of data set: in vivo. The method, then: Myocardial nitric oxide synthase (NOS) activity was determined in hearts of 12.5-month-old WT mice treated with BH4 or vehicle using a commercial kit (Biovision). Briefly, pulverized heart aliquots were processed according to the manufacturer's instructions and fluorometric readouts (excitation: 360, emission: 450) were normalised to protein concentration determined by Bradford assay. Activity of recombinant NOS protein served as positive control.

A further data set relates to 11 month-old WT mice. Put plainly: In vivo intraperitoneal BH4 treatment of 11-month-old WT mice: cardiac phenotyping, plasma and hepatic PA. The method, then:
PA in a dose of 200 mg/kg twice a day or vehicle (1×PBS) was subcutaneously administered to 11 month-old WT mice (Janvier Labs, France) in vivo for a month. BH4 in a dose of 10 mg/kg/die 2×/die or vehicle (1×PBS with 10 mM sodium ascorbate and citric acid to pH 4.5) was intraperitoneally administered to 11 month-old WT mice in vivo over six weeks. General state of the mice (body weight & wellbeing) was closely monitored.
Data acquisition for a single cohort was performed by a single operator (JT or ER). Images were acquired from a parasternal position at the level of the papillary muscles using a 13-MHz linear-array transducer with a digital ultrasound system (Vivid 7, GE Medical System, Horton, Norway). Left ventricular dimensions and ejection fraction, anterior and posterior wall thicknesses were serially obtained from M-mode acquisition. Relative LV wall thickness (RWT) was defined as the sum of septal and posterior wall thickness over LV end-diastolic diameter, and LV mass was determined using the uncorrected cube assumption formula (LV mass=(AWTd+LVEDD+PWTd)^3−(LVEDD)^3). Peak systolic values of radial strain rate of the anterior and posterior wall were obtained using Tissue Doppler Imaging (TDI) as previously described.^2 TDI loops were acquired from parasternal view with a careful alignment with the radial component of the deformation' at a mean frame rate of 514 fps and a depth of 1 cm. The Nyquist velocity limit was set at 12 cm/s. Radial strain rate analysis was performed offline using the EchoPac Software (GE Medical Systems) blindly by a single operator (GD). Peak systolic of radial strain rate was computed from a region of interest positioned in the mid anterior wall and was measured over an axial distance of 0.6 mm. The temporal smoothing filters were turned off for all measurements. Because of the inevitable respiratory variability, we averaged peak systolic of radial strain rate on 8 consecutive cardiac cycles.
In vivo haemodynamic measurements were performed just before mice of indicated ages were sacrificed.' Haemodynamic evaluation was performed in mice placed on a homeothermic operating table in supine position under 1.5% isoflurane anesthesia with spontaneous breathing. A 1.4-Fr microcatheter (Millar Instruments, Houston, USA) was calibrated manually before each experiment, inserted via the right carotid artery into the aorta and subsequently advanced to the left ventricle. Data were collected after at least 10 min of baseline, using the lowest isoflurane concentration tolerated to ensure minimal cardiodepression during measurement of peak rates of isovolumetric pressure development (dP/dtmax) and pressure decay (dP/dtmin). The microcatheter was then withdrawn to the aorta for measurement of systolic and diastolic pressure. Data were analyzed using the IOX software (EMKA, France).
All mice were weighed, euthanized by cervical dislocation, followed by rapid excision of the organs of interest. The heart was cannulated through the aorta for perfusion with ice-cold 1×PBS, then blotted and weighed. The heart was cut in half perpendicular to its axis: the apical two-third was snap-frozen in liquid nitrogen, whilst the basic one-third was recannulated through the aorta, perfused with 10% formalin for histology. Hearts were kept in formalin at 4° C. for at least 24-48 hours before embedding. Snap-frozen tissues were kept at −80° C., until they were powdered using a mortar and pestle cooled with liquid nitrogen and collected as aliquots. Livers and kidneys were processed in a similar manner.
Formalin-fixed organs were embedded in paraffin. Cross-sections were cut into 7 μm thickness using a rotary microtome (Leica). To assess cardiac fibrosis, Sirius red staining was performed, followed by dehydration and mounting with Eukitt quick-hardening mounting medium (Sigma). […]

These results are taken from patent US20220268782A1, “METHODS FOR PREDICTING AND TREATING CARDIAC DYSFUNCTION” (INSERM (INSTITUT NATIONAL DE LA SANTÉ EAT DE LA RECHERCHE …, priority 2019, published 2022).

As for `CC(O)C(O)C1CNc2nc(N)[nH]c(=O)c2N1` (stereo not drawn) [BH4, 2-amino-6-(1,2-dihydroxypropyl)-5,6,7,8-tetrahydro-3H-pteridin-4-one], the “myocardial nitric oxide synthase activity” value in data set [1] is recorded as “without altering”. Besides, the “plasma PA” value in the data set on 11 month-old WT mice (11-month-old WT mice, BH4 10 mg/kg i.p. twice a day over 6 weeks, FIG. 4a) is “reduce plasma PA to young levels”. For the same compound, the systemic arterial pressures entry in the data set on 11 month-old WT mice (11-month-old WT mice, BH4 10 mg/kg i.p. twice a day over 6 weeks, FIG. 4f) is recorded as “without lowering”. In the data set with 11 month-old WT mice (11-month-old WT mice, BH4 10 mg/kg i.p. twice a day over 6 weeks, FIG. 4g-h), the “interstitial fibrosis (Sirius red, vimentin)” value is reported as “normalised”. Besides, the “senescent myocardial expression of p21, Pah, Gch1 & 2-SC” value in the data set with 11 month-old WT mice (11-month-old WT mice, BH4 10 mg/kg i.p. twice a day over 6 weeks, FIG. 4j) is recorded as “suppressing”. In addition, the “HW/TL (heart weight to tibia length)” value in the data set with 11 month-old WT mice (11-month-old WT mice, BH4 10 mg/kg i.p. twice a day over 6 weeks, to young values, FIG. 4b) is recorded as “ameliorated”. In addition, the “contractility (systolic strain rate, dP/dtmax)” value in the data set with 11 month-old WT mice (11-month-old WT mice, BH4 10 mg/kg i.p. twice a day over 6 weeks, to young values, FIG. 4c-d) is listed as “ameliorated”. Further, the “relaxation (dP/dtmin)” value in the data set with 11 month-old WT mice (11-month-old WT mice, BH4 10 mg/kg i.p. twice a day over 6 weeks, to young values, FIG. 4e) is given as “ameliorated”. Further, in the data set with 11 month-old WT mice (12.5-month-old WT mice, BH4 vs. vehicle, FIG. 4s), the “Pah in liver (immunofluorescence)” value is reported as “re-expressed”. For the same compound, the “hepatic PA content” value in the data set with 11 month-old WT mice (12.5-month-old WT mice, BH4 vs. vehicle, FIG. 4t) was “reduced”. For the same compound, the “course of drug treatment (body weight & wellbeing monitored)” value with 11 month-old WT mice (BH4 10 mg/kg twice a day intraperitoneally over six weeks) is on record as “completed as scheduled without incidents”. The “hepatic Pah activity” value with 11 month-old WT mice (BH4-treated WT mice, data not shown) is on record as “improved”.
